{"source": "patent US20240366728A1", "about": "“Treatment of Diabetes Mellitus” (Carmot Therapeutics Inc., priority 2023, published 2024)", "key": {"[1]": {"assay": "in vivo", "settings": "CD-1, mouse, plasma, sc", "method": "First reader's note: The heading '1 mg/kg SC mouse' is printed over the plot above the table and gives dose, route and species for the pharmacokinetic parameters."}, "[2]": {"assay": "Phase 1 first-in-human SAD/MAD study: pharmacokinetics", "format": "in vivo", "settings": "for Tmax: median Tmax", "from_the_text": "This was a randomized, double-blind, placebo-controlled, dose escalation first-in-human (FIH) conducted from December 2018 to January 2020 at a study center in Victoria, Australia in accordance with principles of the Declaration of Helsinki (Ethical Principles for Medical Research Involving Human Subjects), and the NHMRC National Statement on Ethical Conduct in Human Research 2007 (updated 2018). (Registered on the Australian New Zealand Clinical Trials Registry [ANZCTR] under the identifier: ACTRN12618001988246).\nDaily doses were given on Day 2 to Day 14. Cohort M1 was dosed with the highest dose level, determined based on the safety and PK data from the preceding Part 1 (SAD), and doses were decreased sequentially for Cohorts M2 and M3 (FIG. 46B).\nCharacterization of PK profile: PK parameters included maximum concentration (Cmax), time to maximum concentration (Tmax), area under the plasma concentration-time curve (AUC). Blood samples were collected within two hours prior to dosing for pre-dose samples and within ±10 minutes of the nominal/planned time post-dose. For Part 1 (SAD) participants, samples were taken at −2 to 0 hr (pre-dose), 1, 2, 3, 4, 6, 8, 12, 16, 20 hr (Day 1), 24, 30, 36 hr (Day 2), 48 hr (Day 3) and on Day 8 (±1 day, follow-up) post-dose. For Part 2 (MAD) participants, collection occurred −2 to 0 hr (pre-dose), 2, 3, 4, 6, 8, 12 hr (Day 1), 24 hr (Day 2), 48, 60 hr (Day 3), 72 hr (Day 4), 96 hr (Day 5). For Days 7, 8, 11 and 14, samples were taken −2 to 0 hr (pre-dose), 12 hr on Day 7, 2, 4, 6, 8, 12 hr on Day 14, 24, 36 hr on Day 15, 48 hr on Day 16 and on Day 21 (+1 day, follow-up) post-dose.\nEstimates for PK parameters are tabulated and summarized by descriptive statistics (mean, standard deviation [SD], median, minimum, and maximum, coefficient of variation [CV %], geometric mean and geometric CV %). Dose proportionality was analyzed using the power model with log-transformed PK parameter values and log-transformed dose. The power model was used to estimate the slope parameter and the 90% confidence intervals (CIs) for the slope. Dose proportionality was generally concluded if the 90% CIs around the slope estimate include the value of 1."}, "[3]": {"settings": "in vivo"}, "[4]": {"biological_target": "T1, human GIPR (Homo sapiens, UniProt P48546)", "T1 sequence (P48546 22-466)": "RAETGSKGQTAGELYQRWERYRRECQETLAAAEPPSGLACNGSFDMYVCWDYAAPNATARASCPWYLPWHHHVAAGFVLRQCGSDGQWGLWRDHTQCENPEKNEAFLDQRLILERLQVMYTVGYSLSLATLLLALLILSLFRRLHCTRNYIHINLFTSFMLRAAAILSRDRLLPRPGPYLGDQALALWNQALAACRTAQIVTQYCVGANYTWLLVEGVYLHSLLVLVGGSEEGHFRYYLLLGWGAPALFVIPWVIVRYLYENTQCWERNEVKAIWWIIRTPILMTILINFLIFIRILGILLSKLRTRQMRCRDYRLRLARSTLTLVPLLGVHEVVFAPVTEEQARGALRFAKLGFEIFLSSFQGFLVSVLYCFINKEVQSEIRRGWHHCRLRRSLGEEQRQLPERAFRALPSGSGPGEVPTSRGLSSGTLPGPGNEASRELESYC", "assay": "β-arrestin-2 recruitment (NanoBiT), human GIPR", "format": "cell-based", "settings": "Table 17", "procedure": "(§1) To measure GLP-1R and GIPR-mediated β-arrestin recruitment, we utilized Promega's NanoBiT® technology or NanoLuc® Binary Technology. The NanoLuc luciferase is split into two subunits, called LgBiT and SmBIT, which are expressed in HEK293 cells as fusion proteins at the C-terminus of GLP-IR or GIPR and the N-terminus of β-arrestin-2. […] The next day, the media was removed and replaced with […] 1:100 dilution of Nano-Glo® Live Cell Substrate in Opti-MEM™ and equilibrated to room temperature for ten minutes. Background luminescence was measured before 10 nL compound was added using an ECHO Acoustic Liquid Handler.\n(§2) To measure GLP-1R and GIPR-mediated β-arrestin recruitment, Promega's NanoBiT® technology or NanoLuc® Binary Technology were utilized. Both allow for the detection and quantification of protein: protein interactions in live cells (Samms et al., Trends Endocrinol Metab 31:410-21). The NanoLuc luciferase is split into two subunits, called LgBiT and SmBIT, which are expressed in HEK293 cells as fusion proteins at the C-terminus of GLP-1R or GIPR and the N-terminus of β-arrestin-2, respectively. […] Background luminescence was measured before 10 nL compound was added using an ECHO Acoustic Liquid Handler. Luminescence was measured at 1.5-minute intervals for 30 minutes."}, "[5]": {"biological_target": "T1, human GIPR", "assay": "cAMP accumulation, SNAP-human GIPR CHO-K1 cells"}, "[6]": {"biological_target": "human GLP-1R (Homo sapiens, UniProt P43220)", "sequence (P43220 24-463)": "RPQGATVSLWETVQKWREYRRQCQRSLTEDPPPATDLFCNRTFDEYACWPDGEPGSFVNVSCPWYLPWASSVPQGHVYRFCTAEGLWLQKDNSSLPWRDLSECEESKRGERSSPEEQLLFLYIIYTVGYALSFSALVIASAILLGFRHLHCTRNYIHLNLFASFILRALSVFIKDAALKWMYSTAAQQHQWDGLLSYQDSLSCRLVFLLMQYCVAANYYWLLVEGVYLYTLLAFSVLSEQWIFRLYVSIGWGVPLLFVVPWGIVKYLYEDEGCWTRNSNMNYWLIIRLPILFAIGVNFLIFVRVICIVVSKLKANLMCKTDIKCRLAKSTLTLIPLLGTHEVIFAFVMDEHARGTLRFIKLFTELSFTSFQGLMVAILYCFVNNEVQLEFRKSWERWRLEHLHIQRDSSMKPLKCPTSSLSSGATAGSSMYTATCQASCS", "assay": "β-arrestin-2 recruitment (NanoBiT), human GLP-1R", "format": "cell-based", "settings": "read-out: hGLP-1R β-arrestin-2 % Emax; Table 17", "procedure": "as §1, §2"}, "[7]": {"assay": "toxicology studies", "settings": "highest dose tested"}}, "data": [{"smiles": "CCCCCCCCCCCCCCCC(=O)N[C@@H](CCC(=O)NCCCC[C@H](NC(=O)[C@H](CO)NC(=O)[C@@H]1CCCN1C(=O)[C@@H]1CCCN1C(=O)[C@@H]1CCCN1C(=O)[C@H](C)NC(=O)CNC(=O)[C@H](CO)NC(=O)[C@H](CO)NC(=O)[C@@H]1CCCN1C(=O)CNC(=O)CNC(=O)[C@H](C)NC(=O)[C@H](CC(C)C)NC(=O)[C@H](CC(C)C)NC(=O)[C@H](Cc1c[nH]c2ccccc12)NC(=O)[C@H](CC(N)=O)NC(=O)[C@@H](NC(=O)[C@H](Cc1ccccc1)NC(=O)[C@H](CCC(=O)O)NC(=O)C(C)(C)NC(=O)[C@H](C)NC(=O)[C@H](C)NC(=O)[C@H](CCC(N)=O)NC(=O)[C@H](CCCCN)NC(=O)[C@H](CC(=O)O)NC(=O)[C@H](CC(C)C)NC(=O)[C@H](Cc1ccc(O)cc1)NC(=O)[C@@H](NC(=O)[C@H](CO)NC(=O)[C@H](Cc1ccc(O)cc1)NC(=O)[C@H](CC(=O)O)NC(=O)[C@H](CO)NC(=O)[C@@H](NC(=O)[C@H](Cc1ccccc1)NC(=O)[C@@H](NC(=O)CNC(=O)[C@H](CCC(=O)O)NC(=O)CSCC(=O)NCCN1C(=O)CSC1=O)[C@@H](C)O)[C@@H](C)O)[C@@H](C)CC)C(C)C)C(N)=O)C(=O)O", "note": "[CT-859]", "values": [{"measurement": "Cmax", "setting": "[1]", "result": 0.324, "unit": "µM"}, {"measurement": "half-life", "setting": "[1]", "result": 8.72, "unit": "h"}]}, {"smiles": "CCCCCCCCCCCCCCCC(=O)N[C@@H](CCC(=O)NCCCC[C@H](NC(=O)[C@H](CO)NC(=O)[C@@H]1CCCN1C(=O)[C@@H]1CCCN1C(=O)[C@@H]1CCCN1C(=O)[C@H](C)NC(=O)CNC(=O)[C@H](CO)NC(=O)[C@H](CO)NC(=O)[C@@H]1CCCN1C(=O)CNC(=O)CNC(=O)[C@H](C)NC(=O)[C@H](CC(C)C)NC(=O)[C@H](CC(C)C)NC(=O)[C@H](Cc1c[nH]c2ccccc12)NC(=O)[C@H](CC(N)=O)NC(=O)[C@@H](NC(=O)[C@H](Cc1ccccc1)NC(=O)[C@H](CCC(=O)O)NC(=O)C(C)(C)NC(=O)[C@H](C)NC(=O)[C@H](C)NC(=O)[C@H](CCC(N)=O)NC(=O)[C@H](CCCCN)NC(=O)[C@H](CC(=O)O)NC(=O)[C@H](CC(C)C)NC(=O)[C@H](Cc1ccc(O)cc1)NC(=O)[C@@H](NC(=O)[C@H](CO)NC(=O)[C@H](Cc1ccc(O)cc1)NC(=O)[C@H](CC(=O)O)NC(=O)[C@H](CO)NC(=O)[C@@H](NC(=O)[C@H](Cc1ccccc1)NC(=O)[C@@H](NC(=O)CNC(=O)[C@H](CCC(=O)O)NC(=O)CSCC(=O)NCCN1CCCCC1=O)[C@@H](C)O)[C@@H](C)O)[C@@H](C)CC)C(C)C)C(N)=O)C(=O)O", "note": "[CT-868]", "values": [{"measurement": "plasma concentrations after 14 days of dosing vs dose (in words)", "setting": "[2]; MAD 0.75-5.0 mg", "result": "dose-related but not dose-proportional"}, {"measurement": "plasma concentrations over repeated daily dosing (in words)", "setting": "[2]; MAD 0.75-5.0 mg", "result": "reached a plateau after a few days of dosing"}, {"measurement": "Tmax", "setting": "[2]; human, in vivo, 0.5 mg", "result": 3, "unit": "h"}, {"measurement": "AUC0-t", "setting": "[2]; human, in vivo, 1.5 mg", "result": "154.2 [45.7%] h*ng/ml"}, {"measurement": "AUC(0-inf)", "setting": "[2]; human, in vivo, 1.5 mg", "result": "184.9 [47.6%] h*ng/ml"}, {"measurement": "Cmax, geometric mean (% CV)", "setting": "[2]; human, in vivo, 1.5 mg", "result": "5.62 [28.1%] ng/ml"}, {"measurement": "half-life", "setting": "[2]; human, in vivo, 1.5 mg", "result": 77.3, "unit": "h"}, {"measurement": "median Tmax", "setting": "[2]; human, in vivo, 1.5 mg", "result": 8.0, "unit": "h"}, {"measurement": "AUC(0-inf)", "setting": "[2]; human, in vivo, 1.5 mg, AUC0-inf", "result": 0.209, "unit": "µg·h/mL"}, {"measurement": "AUC0-t", "setting": "[2]; human, in vivo, 1.5 mg, AUC0-t", "result": 0.167, "unit": "µg·h/mL"}, {"measurement": "Cmax", "setting": "[2]; human, in vivo, 1.5 mg, Cmax, geometric mean (% CV)", "result": 7.79, "unit": "ng/mL"}, {"measurement": "Tmax", "setting": "[2]; human, in vivo, 1.5 mg", "result": 6, "unit": "h"}, {"measurement": "Tmax", "setting": "[2]; human, in vivo, 7.5 mg", "result": 20, "unit": "h"}, {"measurement": "half-life", "setting": "[2]; human, in vivo, 11 mg", "result": 19.7, "unit": "h"}, {"measurement": "Tmax", "setting": "[2]; human, in vivo, predominant range", "result": "3 to 12", "unit": "h"}, {"measurement": "mean Cmax vs dose (in words)", "setting": "[2]; in vivo", "result": "increased with increasing dose level"}, {"measurement": "time to maximum plasma concentrations after the first dose", "setting": "[2]; in vivo", "result": "48 to 96", "unit": "h"}, {"measurement": "highest tested dose exceeds pharmacologically active dose by", "setting": "[3]", "result": 100, "unit": "fold"}, {"measurement": "vomiting (in words)", "setting": "[3]", "result": "no instances of vomiting"}, {"measurement": "EC50", "setting": "[4]; read-out: hGIPR β-arrestin-2 EC50", "result": 13, "unit": "nM"}, {"measurement": "Emax", "setting": "[4]; read-out: hGIPR β-arrestin-2 % Emax", "result": 1, "unit": "%"}, {"measurement": "Emax", "setting": "[5]; CHO-K1, read-out: hGIPR cAMP (-alb) % Emax", "result": 41, "unit": "%"}, {"measurement": "EC50", "setting": "[5]; potency activating cAMP at human GIPR, value of b126", "result": "~3.3", "unit": "nM"}, {"measurement": "Emax", "setting": "[6]", "result": 1.5, "unit": "%"}, {"measurement": "tolerability in toxicology studies (in words)", "setting": "[7]", "result": "well-tolerated at the highest dose tested"}]}]}
